According to patent publication US20260199365A1, “BIS-SULFONAMIDE SHIP1 ACTIVATORS” (The Research Foundation for the State University of New York, priority 2022, published 2026):

What was measured:
Half-life in vivo = conditions: mice
Excerpt: This is believed to be due to rapid oxidation of the sulfur functional groups in K306 by cytochrome P450 enzymes which are prevalent in mice. […] The thiophene is still a concern, however, as this heterocycle is known to undergo oxidation by CYP enzymes and can lead to toxic metabolites.

[1] = test system: IL-6 production in BV-2 cells; assay: ELISA quantitation of IL-6 production in BV-2 cells after stimulation with LPS; type: cell-based, murine; conditions: 1 h pretreatment with SHIP1 activator 10 μM, then LPS
Procedure: FIG. 3 presents an ELISA quantitation of IL-6 production in BV-2 cells after stimulation with LPS. BV-2 cells were plated and treated for 1 h with vehicle (Veh, 0.25% DMSO) or SHIP1 activator (10 μM in Veh) prior to addition of LPS (100 ng/ml). Unstimulated BV2 cells treated with Veh are shown as an additional control to assess LPS induction of IL-6. (A) Evaluation of 1, 26, 29 and 53. (B) In a separate experiment, 70, and 71 were evaluated under similar conditions. Bars indicate Mean G SEM; statistical tests: two-way ANOVA with Tukey correction, **** p<0.0001, ** p<0.01.
Given this experience, some of the new activators were evaluated in a cell-based setting. Using the immortalized BV-2 cell line, which is derived from murine microglia and retains many microglial morphological and functional characteristics of microglia, an assay for the anti-inflammatory effects of these activators was developed. This assay involved treatment of the cells with lipopolysaccharides (LPS) to induce IL-6 production which can then be quantified with an ELISA.
Cell culture: The BV2 cell line was obtained from the ATCC (American Type Culture Collection). The ATCC and performs genetic validation on deposited cell lines. For the inflammatory cytokines production studies, BV2 cells were cultured in DMEM/F12 (Corning) 10% HI FBS at 37° C. and 5% CO2 in a humidified incubator and split 1:6 every 3 days with Cellstripper™ (Corning). Cells were kept at 37° C. and 5% CO2 in a humidified incubator.
ELISA measurements: Parental (scrambled guide control) BV2 cells were seeded at 5×10^5/mL, […] in 48 well plate. Cell were treated with […] small molecule or vehicle control (0.5% DMSO) and incubated for 1 h before addition of stimuli. LPS (10 ng/ml, E. coli O111: B4, Sigma) was added to the cells and incubated for 6 h to detect IL-6 production. Supernatants were spun down at 400×g for 5 minutes to remove cell debris and froze at −20° C. for ELISAs. IL-6 levels were quantified from cellular supernatants with ELISA MAX™ Standard Set Mouse IL-6 kit (Biolegend), following manufacturer's recommendations. We detected absorbance at 450 nm and removed 570 nm background absorbance, with a plate reader (Synergy 2, BioTek). All experiments were repeated three times and each value was reported as mean±SEM from biological replicates in the same assay. All statistical analysis were performed using GraphPad Prism (version 9.2). Two-way ANOVA was used to analyze all data with two independent variables as time and treatment or concentration and treatment, data is reported as Mean+/−SEM.

- Half-life in vivo (Half-life in vivo): short-half life in vivo
SMILES: Cc1sc(S(=O)(=O)N2CCSCC2)cc1NC(=O)CNS(=O)(=O)c1ccc(F)cc1 [Compound K306, 2-(4-Fluorobenzenesulfonamido)-N-[2-methyl-5-(thiomorpholine-4-sulfonyl)thiophen-3-yl]acetamide]
- IL-6 production induced by LPS [1]: significantly diminished
